The values that follow come from ChEMBL document CHEMBL1800037, “Anti-proliferative activity of aguerin B and a new rare nor-guaianolide lactone isolated from the aerial parts of Centaurea deflexa” (Eur J Med Chem, 2011).

Activity calls are given as the source filed them. The rule behind the calls is not given here. A value given as a limit tells only on which side of the number the result lay.

Broadly, the IC50 is the midpoint of a concentration-inhibition curve.

For series [1], the system named is MIA PaCa-2. The experiment in a line: Antiproliferative activity against human MIAPaCa2 cells after 48 hrs. It is filed as functional, cell-based. Conditions: MIA PaCa-2, 48 h.
The subject of series [2] is MIA PaCa-2. The experiment in a line: Antiproliferative activity against human MIAPaCa2 cells after 72 hrs. As to conditions: MIA PaCa-2, 72 h. It is filed as functional, cell-based.
A short description of series [3]: Antiproliferative activity against human COLO320 cells after 48 hrs. As to conditions: COLO 320, 48 h. The series is classed as functional, cell-based.
Series [4] can be described thus: Antiproliferative activity against human COLO320 cells after 72 hrs. It is filed as functional, cell-based. Conditions: COLO 320, 72 h.
The test system of another series is HEK293. The series can be described thus: Antiproliferative activity against human HEK293 cells up to 100 uM. The series is classed as cell-based.
Series [5] relates to MIA PaCa-2. The experiment in a line: Induction of apoptosis in human MIAPaCa2 cells assessed as increase of interneucleosomal DNA fragmentation at 10 uM after 24 hrs. It is filed as functional, cell-based.
The subject of series [6] is COLO 320. The series can be described thus: Induction of apoptosis in human COLO320 cells assessed as increase of interneucleosomal DNA fragmentation at 10 uM after 24 hrs. It is filed as functional, cell-based.
Series [7] has as its system MIA PaCa-2. The series can be described thus: Antiproliferative activity against human MIAPaCa2 cells after 48 to 72 hrs. The series is classed as functional, cell-based.
In series [8] the test system is COLO 320. The series can be described thus: Antiproliferative activity against human COLO320 cells after 48 to 72 hrs. It is filed as functional, cell-based.
Series [9] has as its system MIA PaCa-2. The experiment in a line: Antiproliferative activity against human MIAPaCa2 cells. The series is classed as functional, cell-based. Conditions: TDE = time-dependent effect.
For series [10], the system named is COLO 320. The series can be described thus: Antiproliferative activity against human COLO320 cells. The series is classed as functional, cell-based. As to conditions: TDE = time-dependent effect.
The subject of series [11] is MIA PaCa-2. The series can be described thus: Induction of apoptosis in human MIAPaCa2 cells assessed as increase of interneucleosomal DNA fragmentation at 5 uM after 24 hrs relative to control. The series is classed as functional.
Series [12] concerns COLO 320. The series can be described thus: Induction of apoptosis in human COLO320 cells assessed as increase of interneucleosomal DNA fragmentation at 5 uM after 24 hrs relative to control. It is filed as functional.

`C=C1C[C@H](O)[C@@H]2[C@H](OC(=O)[C@H]2C)[C@H]2CC(=O)C[C@@H]12`: the IC50 worked out at 25.7 µM in the series on MIA PaCa-2 [1], 15.9 µM with MIA PaCa-2 [2], 10 µM in series [3] and 6 µM in [4]. Further, the Activity entry with HEK293 was “Non-toxic”; with MIA PaCa-2 [7], “Dose-dependent effect”; in the series with COLO 320 [8], “Dose-dependent effect”; in the series with MIA PaCa-2 [9] it was “tde”; in the series with COLO 320 [10] it was “tde”. The outcome with MIA PaCa-2 [5] and in the series on COLO 320 [6] was inactive.
On to `C=C(C)C(=O)O[C@H]1CC(=C)[C@@H]2C[C@H](O)C(=C)[C@@H]2[C@H]2OC(=O)C(=C)[C@@H]21` [AGUERIN B], for which the half-inhibitory concentration (IC50) was 7.5 µM with MIA PaCa-2 [1], 3.6 µM in the series on MIA PaCa-2 [2], 3.2 µM in series [3] and 2.6 µM in series [4]. For the same compound, the Activity result in the series with HEK293 was “Non-toxic”; with MIA PaCa-2 [7] it was “Dose-dependent effect”; in the series with COLO 320 [8], “Dose-dependent effect”; in the series with MIA PaCa-2 [9], “tde”; in the series with COLO 320 [10], “tde”. Moreover, the “fold change (FC)” value in the series on MIA PaCa-2 [11] and in the series with COLO 320 [12] was over 2 each time.
Turning to `O=c1[nH]cc(F)c(=O)[nH]1` [FLUOROURACIL], the concentration for half-maximal inhibition (IC50) was 14 µM in the series on MIA PaCa-2 [1], 7.4 µM in the series on MIA PaCa-2 [2], 10 µM in [3] and 8.7 µM in series [4].
